Test [1] relates to LoVo. Kind of test: Antiproliferative activity against human LoVo cells assessed as cell-growth inhibition after 48 hrs by MTT assay. It is filed as functional, cell-based.
Test [2] in a line: Antiproliferative activity against human U87 cells assessed as cell-growth inhibition after 48 hrs by MTT assay. Format: functional, cell-based, U-87MG ATCC. To be noted: U-87 MG. In general terms: Tetrazolium dyes change colour on reduction, which living cells bring about.
A short description of test [3]: Antiproliferative activity against human BGC823 cells assessed as cell-growth inhibition after 48 hrs by MTT assay. Format: functional, cell-based. As to conditions: BGC-823, 48 h.
Test [4] can be described thus: Antiproliferative activity against human HCT116 cells assessed as cell-growth inhibition after 48 hrs by MTT assay. It is filed as functional, cell-based. As to conditions: HCT-116, 48 h.
The test system of test [5] is MCF7. Kind of test: Antiproliferative activity against human MCF7 cells assessed as cell-growth inhibition after 48 hrs by MTT assay. It is filed as functional, cell-based. To be noted: MCF7, 48 h.
The test system of test [6] is HeLa. Kind of test: Antiproliferative activity against human HeLa cells assessed as cell-growth inhibition after 48 hrs by MTT assay. It is filed as functional, cell-based.

As usually defined, the IC50 is the concentration that gives 50% inhibition. For the molecule `CC(C)(O)CCC[C@@](C)(O)[C@H]1CC[C@]2(C)[C@@H]1[C@H](O)C[C@@H]1[C@@]3(C)CC[C@H](O)C(C)(C)[C@@H]3CC[C@]12C`, the IC50 was 46.7 µM in test [1]; 27.5 µM in test [2]; 44.2 µM in test [3]; 33.3 µM in test [4]; 49.6 µM in test [5]; 48.6 µM in test [6].
On to `CC(=O)O[C@H]1CC[C@]2(C)[C@H]3C[C@@H](O)[C@@H]4[C@@H]([C@](C)(O)CCCC(C)(C)O)CC[C@@]4(C)[C@]3(C)CC[C@H]2C1(C)C`, for which the 50% inhibitory concentration (IC50) in test [1] is 44.9 µM; in test [2], 32.6 µM; in test [3], 34.6 µM; in test [4], 20.5 µM; in test [5], 19.5 µM; in test [6], 30.2 µM.
For `CC(=O)O[C@@H]1C[C@@H]2[C@@]3(C)CC[C@H](O)C(C)(C)[C@@H]3CC[C@@]2(C)[C@]2(C)CC[C@H]([C@](C)(O)CCCC(C)(C)O)[C@@H]12`, the half-inhibitory concentration (IC50) in test [1] is 36.7 µM; in test [2], 34.4 µM; in test [3], 28.7 µM; in test [4] it was 18.9 µM; in test [5], 15.6 µM; in test [6], 39.9 µM.
Consider `CC(=O)O[C@H]1CC[C@]2(C)[C@H]3C[C@@H](OC(C)=O)[C@@H]4[C@@H]([C@](C)(O)CCCC(C)(C)O)CC[C@@]4(C)[C@]3(C)CC[C@H]2C1(C)C`, for which the IC50 in test [1] worked out at 35.6 µM; in test [2] it was 41.2 µM; in test [3], 42.3 µM; in test [4], 17.1 µM; in test [5], 23.5 µM; in test [6] it was 28.9 µM.
As for `C=C(CCCC(C)(C)O)[C@H]1CC[C@]2(C)[C@@H]1[C@H](O)C[C@@H]1[C@@]3(C)CC[C@H](OC(=O)CCl)C(C)(C)[C@@H]3CC[C@]12C`, the half-maximal inhibitory concentration (IC50) in test [1] stood at 19.1 µM; in test [2], 14.1 µM; in test [3], 44.4 µM; in test [4], 12.1 µM; in test [5] it was 18.9 µM; in test [6], 60.9 µM.
Take `C=C(CCCC(C)(C)O)[C@H]1CC[C@]2(C)[C@@H]1[C@H](OC(=O)CCl)C[C@@H]1[C@@]3(C)CC[C@H](O)C(C)(C)[C@@H]3CC[C@]12C`: the IC50 in test [1] was determined as 23.5 µM; in test [2], 24.6 µM; in test [3] it was 45.2 µM; in test [4], 22.5 µM; in test [5], 9.8 µM; in test [6] it was 56.6 µM.
`C=C(CCCC(C)(C)OC(=O)CCl)[C@H]1CC[C@]2(C)[C@@H]1[C@H](O)C[C@@H]1[C@@]3(C)CC[C@H](O)C(C)(C)[C@@H]3CC[C@]12C`: the IC50 in test [1] came to 40 µM; in test [2], 10.1 µM; in test [3] it was 27.1 µM; in test [4] it was 42.8 µM; in test [5] it was 10.8 µM; in test [6], 39.7 µM.
`C=C(CCCC(C)(C)O)[C@H]1CC[C@]2(C)[C@@H]1[C@H](OC(=O)CCl)C[C@@H]1[C@@]3(C)CC[C@H](OC(=O)CCl)C(C)(C)[C@@H]3CC[C@]12C`: the IC50 in test [1] stood at 2.1 µM; in test [2] it was 22.8 µM; in test [3] it was 8.3 µM; in test [4], 1.6 µM; in test [5], 1.7 µM; in test [6], 21.7 µM.
Turning to `C/C(=C/CCC(C)(C)O)[C@H]1CC[C@]2(C)[C@@H]1[C@H](OC(=O)CCl)C[C@@H]1[C@@]3(C)CC[C@H](O)C(C)(C)[C@@H]3CC[C@]12C`, the IC50 worked out at 31 µM in test [1]; 34.6 µM in test [2]; 42.3 µM in test [3]; 8.6 µM in test [4]; 37.8 µM in test [5]; 44.4 µM in test [6].
Consider `C/C(=C/CCC(C)(C)OC(=O)CCl)[C@H]1CC[C@]2(C)[C@@H]1[C@H](O)C[C@@H]1[C@@]3(C)CC[C@H](OC(=O)CCl)C(C)(C)[C@@H]3CC[C@]12C`, for which the concentration for half-maximal inhibition (IC50) in test [1] is 1.3 µM; in test [2] it was 21.3 µM; in test [3], 24.2 µM; in test [4], 1.2 µM; in test [5], 7.9 µM; in test [6] it was 23.4 µM.
Regarding `C/C(=C/CCC(C)(C)O)[C@H]1CC[C@]2(C)[C@@H]1[C@H](OC(=O)CCl)C[C@@H]1[C@@]3(C)CC[C@H](OC(=O)CCl)C(C)(C)[C@@H]3CC[C@]12C`, the IC50 came to 1.7 µM in test [1]; 16.6 µM in test [2]; 7.1 µM in test [3]; 2.6 µM in test [4]; 1.6 µM in test [5]; 37.6 µM in test [6].
Take `CC(C)(O)CCC[C@@](C)(O)[C@H]1CC[C@]2(C)[C@@H]1[C@H](O)C[C@@H]1[C@@]3(C)CC[C@H](OC(=O)CCl)C(C)(C)[C@@H]3CC[C@]12C`: the IC50 is 45.8 µM in test [1]; 31.9 µM in test [2]; 63.6 µM in test [3]; 20.4 µM in test [4]; 84.3 µM in test [5]; 68.1 µM in test [6].
With `CC(C)(O)CCC[C@@](C)(O)[C@H]1CC[C@]2(C)[C@@H]1[C@H](OC(=O)CCl)C[C@@H]1[C@@]3(C)CC[C@H](O)C(C)(C)[C@@H]3CC[C@]12C`, the half-inhibitory concentration (IC50) stood at 31.1 µM in test [1]; 7.3 µM in test [2]; 30.9 µM in test [3]; 32.1 µM in test [4]; 26.2 µM in test [5]; 37.2 µM in test [6].
In the case of `CC(C)(O)CCC[C@@](C)(O)[C@H]1CC[C@]2(C)[C@@H]1[C@H](OC(=O)CCl)C[C@@H]1[C@@]3(C)CC[C@H](OC(=O)CCl)C(C)(C)[C@@H]3CC[C@]12C`, the IC50 in test [1] turned out to be 41 µM; in test [2] it was 88.1 µM; in test [3] it was 61.8 µM; in test [4] it was 45.6 µM; in test [5] it was 38.1 µM; in test [6] it was 68.9 µM.
Take `CC(C)(CCC[C@@](C)(O)[C@H]1CC[C@]2(C)[C@@H]1[C@H](O)C[C@@H]1[C@@]3(C)CC[C@H](OC(=O)CCl)C(C)(C)[C@@H]3CC[C@]12C)OC(=O)CCl`: the 50% inhibitory concentration (IC50) in test [1] was 58.1 µM; in test [2], 40.1 µM; in test [3] it was 6.9 µM; in test [4], 38.2 µM; in test [5], 3.7 µM; in test [6], 27.1 µM.
Take `CC(C)(CCC[C@@](C)(OC(=O)CCl)[C@H]1CC[C@]2(C)[C@@H]1[C@H](O)C[C@@H]1[C@@]3(C)CC[C@H](O)C(C)(C)[C@@H]3CC[C@]12C)OC(=O)CCl`: the half-inhibitory concentration (IC50) in test [1] worked out at 61.2 µM; in test [2], 19.2 µM; in test [3], 32.4 µM; in test [4], 56.1 µM; in test [5] it was 12.1 µM; in test [6] it was 52.6 µM.
On to `O=c1[nH]cc(F)c(=O)[nH]1` [FLUOROURACIL], for which the IC50 in test [1] came to 12.7 µM; in test [2], 38.2 µM; in test [3], 35.6 µM; in test [4] it was 36.2 µM; in test [6], 18.1 µM.

For the origin of these results see ChEMBL document CHEMBL3351936, “Novel 25-hydroxyprotopanaxadiol derivatives incorporating chloroacetyl chloride and their anti-tumor evaluation” (Bioorg Med Chem Lett, 2014).
